From ChEMBL document CHEMBL1150209, “(-)-Grandisin form Cryptocarya crassinervia” (J Nat Prod, 1991)
Converted amounts (≈) assume the structure as drawn.

Key:
[1] = Toxicity against brine shrimp; assay type: organism-based; settings: artemia, in vivo
MCF7 = experiment: Cytotoxicity against human MCF7 cells; assay type: functional; settings: read-out: ED50 (the source's name)
HT-29 = experiment: Cytotoxicity against human HT-29 cells; assay type: functional; settings: read-out: ED50 (the source's name)
A549 = experiment: Cytotoxicity against human A549 cells; assay type: functional; settings: read-out: ED50 (the source's name)

COc1cc([C@@H]2O[C@@H](c3cc(OC)c(OC)c(OC)c3)[C@H](C)[C@H]2C)cc(OC)c1OC [GRANDISIN]
LC50 [1]: 21 mg/L (≈ 48.6 µM) | EC50 (MCF7): > 10 mg/L | EC50 (HT-29): > 10 mg/L | EC50 (A549): > 10 mg/L
